Laboratory results published in patent publication US20080161232A1, “C5a Receptor Antagonist” (JERINI AG, priority 2005, published 2008).
Positions of bridges follow the written chain, without caps; N, C: chain ends. Non-standard residues stand in square brackets, D forms with d. Residues, ends and D or L forms follow the SMILES beside them. Phe(3-Cl) = N[C@@H](Cc1cccc(Cl)c1)C(=O)O; Phe(3-Me) = Cc1cccc(C[C@H](N)C(=O)O)c1; Phe(4-F) = N[C@@H](Cc1ccc(F)cc1)C(=O)O; 1Nal = N[C@@H](Cc1cccc2ccccc12)C(=O)O; His(τ-Me) = Cn1cnc(C[C@H](N)C(=O)O)c1; Bta = N[C@@H](Cc1csc2ccccc12)C(=O)O; cisHyp = O=C(O)[C@@H]1C[C@H](O)CN1; Hyp = O=C(O)[C@@H]1C[C@@H](O)CN1; d(hLeu) = CC(C)CC[C@@H](N)C(=O)O; Cha = N[C@@H](CC1CCCCC1)C(=O)O; NMeN = CN[C@@H](CC(N)=O)C(=O)O; dCha = N[C@H](CC1CCCCC1)C(=O)O; Chg = N[C@H](C(=O)O)C1CCCCC1; dNle = CCCC[C@@H](N)C(=O)O; Pip = O=C(O)[C@@H]1CCCCN1; Nle = CCCC[C@H](N)C(=O)O; Orn = NCCC[C@H](N)C(=O)O; Aze = O=C(O)[C@@H]1CCN1

Molecular target: T1, human C5aR(CD88) (Homo sapiens, UniProt P21730)
T1 construct: expressed in transfected cells; host or cells: rat basophilic leukemia cells (RBL)
T1 sequence (P21730 1-350): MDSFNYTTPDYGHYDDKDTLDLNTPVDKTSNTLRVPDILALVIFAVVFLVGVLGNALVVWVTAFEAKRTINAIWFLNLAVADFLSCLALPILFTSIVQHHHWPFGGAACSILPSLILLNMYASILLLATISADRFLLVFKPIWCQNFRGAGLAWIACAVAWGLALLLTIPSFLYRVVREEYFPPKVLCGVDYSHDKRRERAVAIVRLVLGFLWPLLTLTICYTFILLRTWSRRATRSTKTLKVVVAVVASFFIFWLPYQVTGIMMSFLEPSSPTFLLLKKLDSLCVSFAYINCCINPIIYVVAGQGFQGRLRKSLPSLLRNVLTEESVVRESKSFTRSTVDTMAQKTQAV
Experiment: Determination of the IC50 value in an enzyme release assay (functional assay, antagonistic activity)
Type: cell-based
Settings: antagonistic activity; IC50 group in enzyme release assay, RBL cells expressing human C5aR(CD88); read-out: activity (group)

SMILES | IC50
CC(=O)N[C@@H](Cc1ccc(F)cc1)C(=O)N[C@@H](CCCN)C(=O)N1CCC[C@H]1C(=O)N[C@H](CC1CCCCC1)C(=O)N[C@@H](Cc1csc2ccccc12)C(=O)N[C@@H](Cc1ccccc1)C(N)=O [Compound 169, Ac-Pff-Orn-Pro-cha-Bta-Phe-NH2] (Ac-[Phe(4-F)][Orn]P[dCha][Bta]F-NH2) | 20 to 50 nM
CC(=O)N[C@@H](Cc1ccc(F)cc1)C(=O)N[C@@H](CCCN)C(=O)N1CCC[C@H]1C(=O)N[C@H](CCC(C)C)C(=O)N[C@@H](Cc1csc2ccccc12)C(=O)N[C@@H](Cc1ccccc1)C(N)=O [Compound 170, Ac-Pff-Orn-Pro-hle-Bta-Phe-NH2] (Ac-[Phe(4-F)][Orn]P[d(hLeu)][Bta]F-NH2) | 50 to 200 nM
CCCC[C@@H]1NC(=O)[C@H](Cc2c[nH]c3ccccc23)NC(=O)[C@@H](CC2CCCCC2)NC(=O)[C@@H]2CCN2C(=O)[C@@H](NC(=O)[C@H](Cc2ccccc2)NC(C)=O)CCCNC1=O [Compound 174, Ac-Phe-[Orn-Aze-cha-Trp-Nle]] (Ac-F[Orn][Aze][dCha]W[Nle]; lactam 2-C) | 50 to 200 nM
CCCC[C@@H]1NC(=O)[C@H](Cc2c[nH]c3ccccc23)NC(=O)[C@@H](CC2CCCCC2)NC(=O)[C@@H]2C[C@H](O)CN2C(=O)[C@@H](NC(=O)[C@H](Cc2ccccc2)NC(C)=O)CCCNC1=O [Compound 175, Ac-Phe-[Orn-Chy-cha-Trp-Nle]] (Ac-F[Orn][cisHyp][dCha]W[Nle]; lactam 2-C) | 50 to 200 nM
CC(=O)N[C@@H](Cc1ccccc1)C(=O)N[C@H]1CCCNC(=O)[C@H](Cc2ccccc2)NC(=O)[C@H](Cc2c[nH]c3ccccc23)NC(=O)[C@@H](CC2CCCCC2)NC(=O)[C@@H]2C[C@@H](OC(C)=O)CN2C1=O [Compound 176, Ac-Phe-[Orn-HyA-cha-Trp-Phe]] (Ac-F[Orn][Hyp](Ac)[dCha]WF; lactam 2-C) | 50 to 200 nM
CC(=O)N[C@@H](Cc1ccccc1)C(=O)N[C@H]1CCCNC(=O)[C@H](Cc2ccccc2)NC(=O)[C@H](Cc2csc3ccccc23)NC(=O)[C@@H](CCC(C)C)NC(=O)[C@@H]2C[C@@H](O)CN2C1=O [Compound 177, Ac-Phe-[Orn-Hyp-hle-Bta-Phe]] (Ac-F[Orn][Hyp][d(hLeu)][Bta]F; lactam 2-C) | 50 to 200 nM
CCCC[C@@H]1NC(=O)[C@H](Cc2ccc(F)cc2)NC(=O)[C@@H](CCC(C)C)NC(=O)[C@@H]2C[C@@H](O)CN2C(=O)[C@@H](NC(=O)[C@H](Cc2ccccc2)NC(C)=O)CCCNC1=O [Compound 179, Ac-Phe-[Orn-Hyp-hle-Pff-Nle]] (Ac-F[Orn][Hyp][d(hLeu)][Phe(4-F)][Nle]; lactam 2-C) | 50 to 200 nM
CC(=O)N[C@@H](Cc1ccccc1)C(=O)N[C@H]1CCCNC(=O)[C@H](Cc2ccccc2)NC(=O)[C@H](Cc2c[nH]c3ccccc23)NC(=O)[C@@H](CCC(C)C)NC(=O)[C@@H]2C[C@@H](O)CN2C1=O [Compound 181, Ac-Phe-[Orn-Hyp-hle-Trp-Phe]] (Ac-F[Orn][Hyp][d(hLeu)]WF; lactam 2-C) | 20 to 50 nM
CCCC[C@@H]1NC(=O)[C@H](Cc2c[nH]c3ccccc23)NC(=O)[C@H](Cc2cccc(C)c2)NC(=O)[C@@H]2C[C@@H](O)CN2C(=O)[C@@H](NC(=O)[C@H](Cc2ccccc2)NC(C)=O)CCCNC1=O [Compound 182, Ac-Phe-[Orn-Hyp-Mmf-Trp-Nle]] (Ac-F[Orn][Hyp][Phe(3-Me)]W[Nle]; lactam 2-C) | 50 to 200 nM
CC(=O)N[C@@H](Cc1ccccc1)C(=O)N[C@H]1CCCNC(=O)[C@H](Cc2ccccc2)NC(=O)[C@H](Cc2c[nH]c3ccccc23)NC(=O)[C@H](Cc2cccc(C)c2)NC(=O)[C@@H]2C[C@@H](O)CN2C1=O [Compound 183, Ac-Phe-[Orn-Hyp-Mmf-Trp-Phe]] (Ac-F[Orn][Hyp][Phe(3-Me)]WF; lactam 2-C) | 50 to 200 nM
CCCC[C@@H]1NC(=O)[C@H](Cc2c[nH]c3ccccc23)NC(=O)[C@@H](CC2CCCCC2)NC(=O)[C@H](CC(N)=O)N(C)C(=O)[C@@H](NC(=O)[C@H](Cc2ccccc2)NC(C)=O)CCCNC1=O [Compound 184, Ac-Phe-[Orn-NMD-cha-Trp-Nle]] (Ac-F[Orn][NMeN][dCha]W[Nle]; lactam 2-C) | 50 to 200 nM
CC(=O)N[C@@H](Cc1ccccc1)C(=O)N[C@H]1CCCNC(=O)[C@H](Cc2ccccc2)NC(=O)[C@H](Cc2ccc(F)cc2)NC(=O)[C@@H](CC2CCCCC2)NC(=O)[C@@H]2CCCN2C1=O [Compound 187, Ac-Phe-[Orn-Pro-cha-Pff-Phe]] (Ac-F[Orn]P[dCha][Phe(4-F)]F; lactam 2-C) | 50 to 200 nM

Continued, values first:

IC50 | SMILES
50 to 200 nM | CC(=O)N[C@@H](Cc1ccc(F)cc1)C(=O)N[C@@H](CCCN)C(=O)N1CCC[C@H]1C(=O)N[C@H](CCC(C)C)C(=O)N[C@@H](Cc1cccc(Cl)c1)C(=O)N[C@@H](Cc1ccc(F)cc1)C(N)=O [Compound 171, Ac-Pff-Orn-Pro-hle-Mcf-Pff-NH2] (Ac-[Phe(4-F)][Orn]P[d(hLeu)][Phe(3-Cl)][Phe(4-F)]-NH2)
50 to 200 nM | CC(=O)N[C@@H](Cc1ccccc1)C(=O)N[C@H]1CSSC[C@@H](C(N)=O)NC(=O)[C@H](Cc2ccccc2)NC(=O)[C@H](Cc2csc3ccccc23)NC(=O)[C@@H](CC2CCCCC2)NC(=O)[C@@H]2CCCN2C1=O [Compound 172, Ac-Phe-[Cys-Pro-cha-Bta-Phe-Cys]-NH2] (Ac-FCP[dCha][Bta]FC-NH2; disulfide 2-7)
50 to 200 nM | CCCC[C@@H]1NC(=O)[C@H](Cc2c[nH]c3ccccc23)NC(=O)[C@@H](CC2CCCCC2)NC(=O)[C@H](CC(N)=O)NC(=O)[C@@H](NC(=O)[C@H](Cc2ccccc2)NC(C)=O)CCCNC1=O [Compound 173, Ac-Phe-[Orn-Asn-cha-Trp-Nle]] (Ac-F[Orn]N[dCha]W[Nle]; lactam 2-C)
50 to 200 nM | CC(=O)N[C@@H](Cc1ccccc1)C(=O)N[C@H]1CCCNC(=O)[C@H](Cc2ccccc2)NC(=O)[C@H](Cc2cccc(Cl)c2)NC(=O)[C@@H](CCC(C)C)NC(=O)[C@@H]2C[C@@H](O)CN2C1=O [Compound 178, Ac-Phe-[Orn-Hyp-hle-Mcf-Phe]] (Ac-F[Orn][Hyp][d(hLeu)][Phe(3-Cl)]F; lactam 2-C)
50 to 200 nM | CC(=O)N[C@@H](Cc1ccccc1)C(=O)N[C@H]1CCCNC(=O)[C@H](Cc2ccccc2)NC(=O)[C@H](Cc2ccc(F)cc2)NC(=O)[C@@H](CCC(C)C)NC(=O)[C@@H]2C[C@@H](O)CN2C1=O [Compound 180, Ac-Phe-[Orn-Hyp-hle-Pff-Phe]] (Ac-F[Orn][Hyp][d(hLeu)][Phe(4-F)]F; lactam 2-C)
50 to 200 nM | CC(=O)N[C@@H](Cc1ccccc1)C(=O)N[C@H]1CCCNC(=O)[C@H](Cc2ccccc2)NC(=O)[C@H](Cc2csc3ccccc23)NC(=O)[C@@H](CCC(C)C)NC(=O)[C@@H]2CCCCN2C1=O [Compound 185, Ac-Phe-[Orn-Pip-hle-Bta-Phe]] (Ac-F[Orn][Pip][d(hLeu)][Bta]F; lactam 2-C)
50 to 200 nM | CCCC[C@@H]1NC(=O)[C@H](Cc2ccc(F)cc2)NC(=O)[C@@H](CC2CCCCC2)NC(=O)[C@@H]2CCCN2C(=O)[C@@H](NC(=O)[C@H](Cc2ccccc2)NC(C)=O)CCCNC1=O [Compound 186, Ac-Phe-[Orn-Pro-cha-Pff-Nle]] (Ac-F[Orn]P[dCha][Phe(4-F)][Nle]; lactam 2-C)
50 to 200 nM | CC(=O)N[C@@H](Cc1ccccc1)C(=O)N[C@H]1CCCNC(=O)[C@H](Cc2cccc3ccccc23)NC(=O)[C@H](Cc2c[nH]c3ccccc23)NC(=O)[C@@H](CC2CCCCC2)NC(=O)[C@@H]2CCCN2C1=O [Compound 188, Ac-Phe-[Orn-Pro-cha-Trp-1Ni]] (Ac-F[Orn]P[dCha]W[1Nal]; lactam 2-C)
50 to 200 nM | CC(=O)N[C@@H](Cc1ccccc1)C(=O)N[C@H]1CCCNC(=O)[C@H](CC2CCCCC2)NC(=O)[C@H](Cc2c[nH]c3ccccc23)NC(=O)[C@@H](CC2CCCCC2)NC(=O)[C@@H]2CCCN2C1=O [Compound 189, Ac-Phe-[Orn-Pro-cha-Trp-Cha]] (Ac-F[Orn]P[dCha]W[Cha]; lactam 2-C)
50 to 200 nM | CC(=O)N[C@@H](Cc1ccccc1)C(=O)N[C@H]1CCCNC(=O)[C@H](C2CCCCC2)NC(=O)[C@H](Cc2c[nH]c3ccccc23)NC(=O)[C@@H](CC2CCCCC2)NC(=O)[C@@H]2CCCN2C1=O [Compound 190, Ac-Phe-[Orn-Pro-cha-Trp-Chg]] (Ac-F[Orn]P[dCha]W[Chg]; lactam 2-C)
20 to 50 nM | CC(=O)N[C@@H](Cc1ccccc1)C(=O)N[C@H]1CCCNC(=O)[C@H](Cc2cn(C)cn2)NC(=O)[C@H](Cc2c[nH]c3ccccc23)NC(=O)[C@@H](CC2CCCCC2)NC(=O)[C@@H]2CCCN2C1=O [Compound 192, Ac-Phe-[Orn-Pro-cha-Trp-Ecr]] (Ac-F[Orn]P[dCha]W[His(τ-Me)]; lactam 2-C)
50 to 200 nM | CC(=O)N[C@@H](Cc1ccccc1)C(=O)N[C@H]1CCCNC(=O)[C@H](CC(C)C)NC(=O)[C@H](Cc2c[nH]c3ccccc23)NC(=O)[C@@H](CC2CCCCC2)NC(=O)[C@@H]2CCCN2C1=O [Compound 193, Ac-Phe-[Orn-Pro-cha-Trp-Leu]] (Ac-F[Orn]P[dCha]WL; lactam 2-C)
50 to 200 nM | CCCC[C@H]1NC(=O)[C@H](Cc2c[nH]c3ccccc23)NC(=O)[C@@H](CC2CCCCC2)NC(=O)[C@@H]2CCCN2C(=O)[C@@H](NC(=O)[C@H](Cc2ccccc2)NC(C)=O)CCCNC1=O [Compound 194, Ac-Phe-[Orn-Pro-cha-Trp-nle]] (Ac-F[Orn]P[dCha]W[dNle]; lactam 2-C)
50 to 200 nM | CCCC[C@@H]1NC(=O)[C@H](Cc2csc3ccccc23)NC(=O)[C@@H](CCC(C)C)NC(=O)[C@@H]2CCCN2C(=O)[C@@H](NC(=O)[C@H](Cc2ccccc2)NC(C)=O)CCCNC1=O [Compound 196, Ac-Phe-[Orn-Pro-hle-Bta-Nle]] (Ac-F[Orn]P[d(hLeu)][Bta][Nle]; lactam 2-C)
